Measurements from publication PMC8956313, “Biological investigation of N-methyl thiosemicarbazones as antimicrobial agents and bacterial carbonic anhydrases inhibitors” (Journal of Enzyme Inhibition and Medicinal Chemistry, 2022).

What was measured:
Assay in all cases: stopped-flow CO2 hydrase assay
Type in all cases: biochemical
hCA I = biological target: T1, hCA I (Homo sapiens, UniProt P00915)
T1 construct: gene CA1; recombinant, obtained in house

EcoγCA = biological target: T2, EcoγCA (Escherichia coli, UniProt P0A9W9)
T2 construct: gene yrdA; recombinant, expressed in E. coli (DE3), purified
T2 sequence (P0A9W9 1-184): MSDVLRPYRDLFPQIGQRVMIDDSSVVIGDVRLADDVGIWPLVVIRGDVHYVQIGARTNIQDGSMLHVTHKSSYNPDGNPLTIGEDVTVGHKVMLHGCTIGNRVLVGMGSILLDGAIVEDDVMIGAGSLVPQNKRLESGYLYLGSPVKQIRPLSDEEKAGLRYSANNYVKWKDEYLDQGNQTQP

psCA3-β = biological target: T3, psCA3-β (Pseudomonas aeruginosa, UniProt Q9HVB9)
T3 construct: gene PA4676; recombinant, expressed in E. coli (DE3), purified
T3 sequence (Q9HVB9 1-215): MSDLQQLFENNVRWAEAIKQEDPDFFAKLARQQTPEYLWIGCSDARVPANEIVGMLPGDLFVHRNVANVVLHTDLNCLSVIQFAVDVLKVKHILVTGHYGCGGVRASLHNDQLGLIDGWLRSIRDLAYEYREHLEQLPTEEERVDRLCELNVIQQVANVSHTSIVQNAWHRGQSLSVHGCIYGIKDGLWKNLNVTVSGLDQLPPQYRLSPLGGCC

hCA II = biological target: T4, hCA II (Homo sapiens, UniProt P00918)
T4 construct: gene CA2; recombinant, obtained in house

EcoβCA = biological target: T5, EcoβCA (Escherichia coli, UniProt P61517)
T5 construct: gene can; recombinant, expressed in E. coli (DE3), purified

HpαCA = biological target: T6, HpαCA (Helicobacter pylori, UniProt O25798); conditions: HEPES pH 7.40, 20 mM Na2SO4, 15 min preincubation, room temperature
T6 construct: gene HP_1186; recombinant, expressed in E. coli (DE3), purified
T6 sequence (O25798 19-202): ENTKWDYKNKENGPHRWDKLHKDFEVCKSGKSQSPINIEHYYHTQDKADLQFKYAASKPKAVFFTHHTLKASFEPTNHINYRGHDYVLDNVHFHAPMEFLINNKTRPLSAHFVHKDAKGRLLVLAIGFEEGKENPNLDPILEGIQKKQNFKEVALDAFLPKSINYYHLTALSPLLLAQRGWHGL

HpβCA = biological target: T7, HpβCA (Helicobacter pylori, UniProt O24855)
T7 construct: gene cynT; recombinant, expressed in E. coli (DE3), purified
T7 sequence (O24855 1-221): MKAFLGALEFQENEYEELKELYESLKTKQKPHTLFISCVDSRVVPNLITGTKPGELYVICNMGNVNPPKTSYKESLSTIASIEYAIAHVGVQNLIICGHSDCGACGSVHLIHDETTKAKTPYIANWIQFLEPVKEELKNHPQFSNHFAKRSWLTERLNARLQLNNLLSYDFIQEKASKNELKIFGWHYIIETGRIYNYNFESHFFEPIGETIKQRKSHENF

T1 sequence (P00915 2-261): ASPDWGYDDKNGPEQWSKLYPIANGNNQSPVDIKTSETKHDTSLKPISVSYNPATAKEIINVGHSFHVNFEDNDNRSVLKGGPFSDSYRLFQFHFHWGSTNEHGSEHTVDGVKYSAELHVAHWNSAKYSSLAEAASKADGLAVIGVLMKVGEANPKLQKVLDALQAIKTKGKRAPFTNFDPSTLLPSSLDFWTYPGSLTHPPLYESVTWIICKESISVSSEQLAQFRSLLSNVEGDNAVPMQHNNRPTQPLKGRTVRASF
T5 sequence (P61517 whole entry): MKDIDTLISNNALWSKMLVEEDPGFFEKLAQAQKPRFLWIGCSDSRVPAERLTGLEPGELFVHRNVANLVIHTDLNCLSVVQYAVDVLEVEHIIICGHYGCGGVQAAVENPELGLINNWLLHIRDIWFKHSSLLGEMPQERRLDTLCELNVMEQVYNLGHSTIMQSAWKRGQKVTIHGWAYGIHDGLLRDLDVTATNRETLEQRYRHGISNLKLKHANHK

Compound | Ki (hCA I) [µM] | Ki (EcoγCA) [µM] | Ki (psCA3-β) [µM] | Ki (hCA II) [µM] | further results
CNC(=S)NN=C(C)c1ccc(-n2ccnc2)cc1 [compound 4, TSC 4] | > 1000 | – | – | – | –
CNC(=S)NN=C(C)c1ccc(S(C)(=O)=O)cc1 [compound 2, TSC 2] | – | 80 | 93.4 | > 800 | –
CNC(=S)NN=C(C)c1ccc2c(c1)OCO2 [compound 6, TSC 6] | > 1000 | – | – | – | –
CNC(=S)NN=C(C)c1ccc2c(c1)OCCO2 [compound 7, TSC 7] | > 1000 | – | – | – | Ki (EcoβCA): 96.5 µM
CNC(=S)NN=C(C)c1ccc(-c2cc3ccccc3[nH]2)cc1 [compound 5, TSC 5] | – | – | – | – | Ki (HpαCA): 95.2 µM; Ki (HpβCA): 348 µM
CNC(=S)NN=C(C)c1ccc(Br)s1 [compound 9, TSC 9] | – | 83.2 | 86.7 | > 800 | –
CNC(=S)NN=C(C)c1ccc(N2CCOCC2)cc1 [compound 3, TSC 3] | – | – | – | > 800 | Ki (EcoβCA): 91.5 µM
CNC(=S)NN=C(C)c1ccc(OC)cc1 [compound 1, TSC 1] | – | 86.2 | 92.1 | > 800 | –
